According to US20100056515A1, “BENZIMIDAZOLE COMPOUNDS” (priority 2006, published 2010):

Columns and labels:
human CRF receptor = molecular target: T1, human CRF receptor (Homo sapiens, UniProt P34998); experiment: Measurement of CRF Binding Inhibitory Rate (receptor binding experiment with 125I-CRF); conditions: human CRF receptor expressing CHO cellular membrane fraction; 50 pM ovine 125I-CRF; 0.05 nM to 10 μM of compound; room temperature 1.5 hr; read-out: IC50 values (CRF binding inhibition)
T1 construct: expressed in transfected cells; host or cells: CHO cells (membrane fraction)
T1 sequence (P34998 24-415): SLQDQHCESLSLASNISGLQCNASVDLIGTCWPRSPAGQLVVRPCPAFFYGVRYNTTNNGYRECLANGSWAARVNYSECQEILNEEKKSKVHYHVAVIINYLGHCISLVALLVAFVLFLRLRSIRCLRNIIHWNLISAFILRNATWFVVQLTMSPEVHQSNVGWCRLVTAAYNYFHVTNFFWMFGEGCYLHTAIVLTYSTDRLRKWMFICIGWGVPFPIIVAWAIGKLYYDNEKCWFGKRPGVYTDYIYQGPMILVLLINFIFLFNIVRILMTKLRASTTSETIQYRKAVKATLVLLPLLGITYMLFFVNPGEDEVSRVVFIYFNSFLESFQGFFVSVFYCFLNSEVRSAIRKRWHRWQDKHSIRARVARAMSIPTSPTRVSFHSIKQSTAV
Method: Measurement of CRF Binding Inhibitory Rate
A receptor binding experiment was carried out using a human CRF receptor expressing CHO cellular membrane fraction and ovine CRF, [^125I]-tyr^0(^125I-CRF). 1000 nM of a test compound was incubated with 1 μg of human CRF receptor expressing CHO cellular membrane fraction and 50 pM of ^125I-CRF in a binding assay buffer (50 mM Tris-HCl, 5 mM EDTA, 10 mM MgCl2, 0.05% CHAPS, 0.1% BSA, 0.5 mM PMSF, 0.1 μg/mL pepstatin, 20 μg/mL leupeptin, pH 7.5). In addition, for measuring nonspecific binding (NSB), 0.1 μM unlabelled human Urocortin was incubated with 5 μg of human CRF receptor expressing CHO cellular membrane fraction and 50 pM of ^125I-CRF in a binding assay buffer. After a binding reaction was carried out at room temperature for 1.5 hr, the membrane was entrapped on a glass filter (UniFilter plate GF-C/Perkin Elmer) by suction filtration using a cell harvester (Perkin Elmer), and washed with ice-cooled 50 mM Tris-HCl (pH 7.5). After drying the glass filter, a liquid scintillation cocktail (Microscinti 0, Perkin Elmer) was added, and the radioactivity of ^125I-CRF remaining on a glass filter was measured using Topcount (Perkin Elmer).
(TB-SB)/(TB-NSB)×100 (SB: radioactivity when a compound is added, TB: maximum binding radioactivity, NSB: nonspecific binding radioactivity) were calculated to obtain binding inhibitory rates under the range of the presence from 0.05 nM to 10 μM of each compounds. The IC50 values were calculated by using GraphPad Prism software.

Compound	melting point [°C]	IC50 (human CRF receptor) [µM]
CCC(CC)c1ccc(Cl)c2nc(Oc3c(Cl)cc(Cl)cc3C#N)n(C)c12 [Example 31, 3,5-Dichloro-2-{[4-chloro-7-(1-ethylpropyl)-1-methyl-1H-benzimidazol-2-yl]oxy}benzonitrile]	155 to 156	< 1
CCC(CC)c1cccc2nc(Oc3c(C)cc(Cl)cc3Cl)n(C)c12 [Example 91, 2-(2,4-Dichloro-6-methylphenoxy)-7-(1-ethylpropyl)-1-methyl-1H-benzimidazole]	91 to 92	< 1
CCC(CC)c1ccc(Cl)c2nc(Oc3ccc(N(C)C)cc3Cl)n(C)c12 [Example 83, 3-Chloro-4-{[4-chloro-7-(1-ethylpropyl)-1-methyl-1H-benzimidazol-2-yl]oxy}-N,N-dimethylaniline]	148 to 149	< 1
CCC(CC)c1ccc(OC)c2nc(Oc3ccc(C)nc3N(C)C)n(C)c12 [Example 5, 3-{[7-(1-Ethylpropyl)-4-methoxy-1-methyl-1H-benzimidazol-2-yl]oxy}-N,N,6-trimethylpyridin-2-amine]	143 to 144	< 1
CCC(CC)c1ccc(OC)c2nc(Oc3ccc(N(C)C)cc3Cl)n(C)c12 [Example 3, 3-Chloro-4-{[7-(1-ethylpropyl)-4-methoxy-1-methyl-1H-benzimidazol-2-yl]oxy}-N,N-dimethylaniline]	122 to 123	< 1
CCC(CC)c1ccc(Cl)c2nc(Oc3c(C)cc(S(C)(=O)=O)cc3Cl)n(C)c12 [Example 38, 4-Chloro-2-[2-chloro-6-methyl-4-(methylsulfonyl)phenoxy]-7-(1-ethylpropyl)-1-methyl-1H-benzimidazole]	199 to 200	< 1
CCC(CC)c1ccc(OC)c2nc(Oc3ccc(OC(F)(F)F)cc3Br)n(C)c12 [Example 10, 2-[2-Bromo-4-(trifluoromethoxy)phenoxy]-7-(1-ethylpropyl)-4-methoxy-1-methyl-1H-benzimidazole]	117 to 118	< 1
CCC(CC)c1ccc(OC)c2nc(Oc3c(Cl)cc(Cl)cc3CN3CCCC3)n(C)c12.Cl [Example 79, 2-[2,4-Dichloro-6-(pyrrolidin-1-ylmethyl)phenoxy]-7-(1-ethylpropyl)-4-methoxy-1-methyl-1H-benzimidazole]	183 to 185	< 1
CCC(CC)c1ccc(Cl)c2nc(Oc3c(C)cc(S(N)(=O)=O)cc3Cl)n(C)c12 [Example 40, 3-Chloro-4-{[4-chloro-7-(1-ethylpropyl)-1-methyl-1H-benzimidazol-2-yl]oxy}-5-methylbenzenesulfonamide]	293 to 294	< 1
CCC(CC)c1ccc(OC)c2nc(Oc3c(Cl)cc(Cl)cc3CN3CCCC3C)n(C)c12.Cl (centres unmarked) [Example 80, 2-{2,4-Dichloro-6-[(2-methylpyrrolidin-1-yl)methyl]phenoxy}-7-(1-ethylpropyl)-4-methoxy-1-methyl-1H-benzimidazole]	171 to 173	< 1
CCC(CC)c1ccc(Cl)c2nc(Oc3c(C)cc(C(C)=O)cc3Cl)n(C)c12 [Example 35, 1-(3-Chloro-4-{[4-chloro-7-(1-ethylpropyl)-1-methyl-1H-benzimidazol-2-yl]oxy}-5-methylphenyl)ethanone]	160 to 161	< 1
CCC(CC)c1ccc(Cl)c2nc(Oc3c(Cl)cc(OC(F)(F)F)cc3S(C)(=O)=O)n(C)c12 [Example 44, 4-Chloro-2-[2-chloro-6-(methylsulfonyl)-4-(trifluoromethoxy)phenoxy]-7-(1-ethylpropyl)-1-methyl-1H-benzimidazole]	164 to 165	< 1
CCC(CC)c1ccc(OC)c2nc(Oc3c(Cl)cc(Cl)cc3N(C)C)n(C)c12 [Example 7, 3,5-Dichloro-2-{[7-(1-ethylpropyl)-4-methoxy-1-methyl-1H-benzimidazol-2-yl]oxy}-N,N-dimethylaniline]	173 to 175	< 1
CCC(CC)c1ccc(OC)c2nc(Oc3ccc(C(C)=O)cc3C)n(C)c12 [Example 6, 1-(4-{[7-(1-Ethylpropyl)-4-methoxy-1-methyl-1H-benzimidazol-2-yl]oxy}-3-methylphenyl)ethanone]	114 to 115	< 1
CCC(CC)c1ccc(Cl)c2nc(Oc3c(C)cc([S+](C)[O-])cc3Cl)n(C)c12 (centres unmarked) [Example 37, 4-Chloro-2-[2-chloro-6-methyl-4-(methylsulfinyl)phenoxy]-7-(1-ethylpropyl)-1-methyl-1H-benzimidazole]	182 to 184	< 1
CCC(CC)c1ccc(OC)c2nc(Nc3c(C)cc(Cl)cc3Cl)n(C)c12 [Example 88, N-(2,4-Dichloro-6-methylphenyl)-7-(1-ethylpropyl)-4-methoxy-1-methyl-1H-benzimidazol-2-amine]	201 to 203	< 1
CCC(CC)c1ccc(OC)c2nc(Nc3ccc(Cl)cc3Br)n(C)c12 [Example 19, N-(2-Bromo-4-chlorophenyl)-7-(1-ethylpropyl)-4-methoxy-1-methyl-1H-benzimidazol-2-amine]	193 to 195	< 1
CCC(CC)c1ccc(OC)c2nc(Oc3ccc(OC(F)(F)F)cc3N(C)C)n(C)c12 [Example 30, 2-{[7-(1-Ethylpropyl)-4-methoxy-1-methyl-1H-benzimidazol-2-yl]oxy}-N,N-dimethyl-5-(trifluoromethoxy)aniline]	93 to 95	< 1
CCC(CC)c1ccc(Cl)c2nc(Oc3c(Cl)cc(Cl)cc3-n3ccnc3)n(C)c12 [Example 27, 4-Chloro-2-[2,4-dichloro-6-(1H-imidazol-1-yl)phenoxy]-7-(1-ethylpropyl)-1-methyl-1H-benzimidazole]	134 to 135	< 1
CCC(CO)c1ccc(Cl)c2nc(Oc3c(C)cc(Cl)cc3Cl)n(C)c12 (centres unmarked) [Example 94, 2-[4-Chloro-2-(2,4-dichloro-6-methylphenoxy)-1-methyl-1H-benzimidazol-7-yl]butan-1-ol]	208 to 209	< 1
CCC(CC)c1ccc(Cl)c2nc(Oc3c(OC)cc(C)nc3N(C)C)n(C)c12 [Example 52, 3-{[4-Chloro-7-(1-ethylpropyl)-1-methyl-1H-benzimidazol-2-yl]oxy}-4-methoxy-N,N,6-trimethylpyridin-2-amine]	202 to 203	< 1
CCC(CCO)c1ccc(Cl)c2nc(Oc3c(C)cc(Cl)cc3Cl)n(C)c12 (centres unmarked) [Example 97, 3-[4-Chloro-2-(2,4-dichloro-6-methylphenoxy)-1-methyl-1H-benzimidazol-7-yl]pentan-1-ol]	165 to 167	< 1
CCC(CC)c1ccc(OC)c2nc(Nc3ccc(Cl)cc3Cl)n(C)c12 [Example 20, N-(2,4-Dichlorophenyl)-7-(1-ethylpropyl)-4-methoxy-1-methyl-1H-benzimidazol-2-amine]	198 to 200	< 1
CCC(c1cccc2nc(Nc3c(C)cc(Cl)cc3OC)n(C)c12)N(C)C (centres unmarked) [Example 62, N-(4-Chloro-2-methoxy-6-methylphenyl)-7-[1-(dimethylamino)propyl]-1-methyl-1H-benzimidazol-2-amine]		< 1
CCC(CC)c1ccc(Cl)c2nc(Oc3c(Br)cc(C(F)(F)F)nc3C)n(C)c12 [Example 75, 2-{[4-Bromo-2-methyl-6-(trifluoromethyl)pyridin-3-yl]oxy}-4-chloro-7-(1-ethylpropyl)-1-methyl-1H-benzimidazole]		< 1
CCC(CC)c1ccc(O)c2nc(Nc3c(C)cc(Cl)cc3Cl)n(C)c12 [Example 90, 2-[(2,4-Dichloro-6-methylphenyl)amino]-7-(1-ethylpropyl)-1-methyl-1H-benzimidazol-4-ol]		< 1
CCC(CC)c1ccc(OC)c2nc(Oc3ncc(Br)cc3C)n(C)c12 [Example 8, 2-[(5-Bromo-3-methylpyridin-2-yl)oxy]-7-(1-ethylpropyl)-4-methoxy-1-methyl-1H-benzimidazole]		< 1
